Experiment [1] concerns KS cells. Put plainly: KS cell adhesion to fibronectin. The class given is cell-based, human.
The subject of experiment [2] is primary macrovascular (umbilical vein) endothelial cells (HUVEC). The experiment in a line: Proliferation assay of HUVEC, basal or bFGF-induced. Particulars: for basal or bFGF-induced proliferation (number of cells): 0.1, 1 or 10 μM, 5 days, bFGF 10 ng/ml. Type of experiment: cell-based, human. Here is the method: Human endothelial cells from the umbilical vein (HUVEC, Blo-Whittaker, Verviers, Belgium) were plated in triplicate (1.5×10^4 cells/well) in plates of 12 wells previously covered with gelatine. The next day the cells were incubated for 4 hours in a medium without serum and cultivated in RPMI 1640 medium (Life Technologies, Eragny, France) with the addition of 10% of foetal bovine serum (FBS) together with bFGF in PBS buffer (10 ng/ml) or PBS buffer alone.
The concentrations of HIV-PI used were the same as those present in plasma of treated patients (Deeks et al., 1997).

The subject of experiment [3] is hepato-carcinoma cells (SK-Hep-1). Put plainly: Cell growth assay of SK-Hep-1 cells. The class given is cell-based, human. The note with it: 10 μM; 4 days. Here is the method: FIG. 16. […] Shown is the result of a representative cell growth assay performed on the hepato-carcinoma cells. Human hepato-carcinoma cells (SK-Hep-1; from ATCC) were plated in triplicate (8×10^4 cells/well) in 12-well plates. […] After 4 days of culture, the cells were counted by trypan blue dye staining, as previously described (Ensoli et al., 1990; Ensoli et al., 1994b): For all the in vitro studies HIV-PI as endotoxin-free pure powder (a kind gift of Merck Sharp & Dohme and Roche) were resuspended in distilled water. Assays were repeated at least three times.

The test system of experiment [4] is lesions induced by bFGF and VEGF combined. Put plainly: Angiogenic KS-like lesions induced by bFGF and VEGF combined in nude mice. The class given is in vivo. The note with it: bFGF 0.1 μg + VEGF 1 μg. Here is the method: Since VEGF co-operates synergistically with bFGF in inducing angiogenesis and KS-lesion formation, mice (6 animals/group) were also inoculated with sub-optimal amounts of bFGF (0.1 μg) and VEGF (1 μg) combined, as previously performed to observe their synergistic effect (Samaniego et al 1998), and treated with HIV-PI as indicated above.
At sacrifice the sites of injection were examined for the presence of macroscopic angioproliferative lesions and tissue stained by H & E and analysed microscopically. Here are listed the number (No.) of mice that developed lesions with respect to the number (No.) of mice inoculated, and the percentage (%) of mice that developed lesions.

Experiment [5] relates to KS cells. The experiment in a line: KS cell proliferation (trypan blue dye exclusion). The class given is cell-based, human. Particulars: 7 days.
Another experiment concerns smooth muscle cells. Put plainly: Invasion assay of smooth muscle cells in response to bFGF. The class given is cell-based, human. The text has this:
Assays have been essentially performed as described in key to FIGS. 1 and 3. […] Data of duplicate experiments (mean) are shown.

Another experiment relates to IL-6. Put plainly: IL-6 production by KS cells (ELISA). Type of experiment: cell-based, human. The note with it: 0.1, 1 and 10 μM, 5 days + 24 hours. Here is the method: After 24 hours of incubation, the supernatants of the cultures were tested by ELISA (R & D Systems, Minneapolis, Minn., USA) to determine the quantity of IL-6 present in the medium. The quantity of IL-6 is expressed in pg/ml of supernatant. The same tests were carried out for bFGF, VEGF, IL-1α and IL-1β by means of commercial ELISA kits.
KS cells secrete cytokines with an inflammatory, oedemigenic, angiogenic and proliferative activity with autocrine and paracrine effects (Ensoli and Stürzl, 1998). These factors mediate all the processes required for KS-like lesions formation (angiogenesis, cellular proliferation and invasion, inflammatory Infiltration, oedema) and vascular permeability and oedema induced by KS cells in nude mice. […] The quantity of bFGF, VEGF, IL-1 and IL-6 was dosed with immuno-enzymatic trials in the supernatants of the KS cells after 24 hours of culture in the absence of serum and in the continuous presence of the two HIV-PI (ELISA). […] Furthermore IL-6 plays a key role in the multicentric Cstleman's diseases and in the growth of lymphomas (Tosato et al., 1993; Peterson and Frizzera, 1993; Asou et al., 1998; Ramsay et al., 1994), another type of tumour whose incidence is reduced in patients treated with HIV-PI (International Collaboration on HIV and Cancer 2000).
(In an ELISA, binding on a coated surface is turned into a signal by an enzyme label.)

Experiment [6] relates to KS cells. Put plainly: KS cell migration, Boyden chamber, bFGF chemo-attractant. Type of experiment: cell-based, human. The note with it: 0.01 μM-1 μM, 5 days. Here is the method: In contrast, both drugs inhibited KS cell capability of invading a matrigel substrate in a dose-dependent manner. In particular, both HIV-PI inhibit the invasion of KS cells by 30-40% (p<0.05) (Table 4 and FIG. 13).
Migration and invasion assays were carried out essentially as detailed in the key to FIGS. 2 and 3.

In experiment [7] the test system is endothelial/lung carcinoma hybrid (Ea-hy 926) cells. The experiment in a line: Cell growth assay of Ea-hy 926 cells. The class given is cell-based, human. Particulars: 1 μM; 5 days. Here is the method: The assays have been performed essentially as described in key to FIG. 1. No growth factors were added to EA-hy 926 cells since they produce factors which mediates cell growth in autocrine fashion (Edgell et al., 1983, Albini et al., PNAS 1995, Albini et al., Nat Med 1996). […] The assays have been performed essentially as described in legend to FIG. 3. Average and variation range of two independent experiments each performed in duplicate are shown.

For experiment [8], the system named is hepato-carcinoma (SK-Hep-1) cells. The experiment in a line: Tumour lesions induced by SK-Hep-1 cells in nude mice. The class given is in vivo. The note with it: 5×10^6 cells/site; daily treatment. Here is the method: Twenty-four hours before cell injection, the mice have received sub-lethal irradiation (400 G) in order to increase the tumour up-take. The treatment with HIV-PI or saline solution continued until sacrifice. The size of the lesions present at the injection site was evaluated daily by caliper measurement. External lesion area was then calculated as the product of the two major lesion diameters. The mean size (cm^2) of the lesions present at the injection site is shown.
To determine whether HIV-PI could inhibit the growth of malignant solid and lymphoid tumours, nude mice were inoculated with hepato-carcinoma cells (SK-Hep-1), lung carcinoma cells (A549), breast adeno-carcinoma cells (MDA-MB-468), myelo-monocytic leukaemia cells (U937), and T lymhocytic leukaemia cells (Jurkat).

The test system of experiment [9] is lesions promoted by bFGF and HIV-1 Tat combined. Put plainly: KS-like lesions promoted by bFGF and HIV-1 Tat combined in nude mice. The class given is in vivo. Particulars: bFGF 1 μg + Tat 10 μg. The text has this:
Here are listed the number (N.) of mice that developed lesions with respect to the number (N.) of mice inoculated, and the percentage (%) of mice that developed lesions.

“Also recorded” adds a separate entry of the source.

For `CC(C)(C)NC(=O)[C@@H]1CN(Cc2cccnc2)CCN1C[C@@H](O)C[C@@H](Cc1ccccc1)C(=O)N[C@H]1c2ccccc2C[C@H]1O` [Indinavir, indinavir], the “capability of the KS cells to adhere to a substrate of fibronectin” value with KS cells [1] is on record as “do not inhibit”. Besides, in experiment [2], the “survival of macrovascular endothelial cells” value was “no effect” and the “basal or bFGF-induced proliferation (number of cells)” value was “no effect”. Moreover, in experiment [3], the proliferation entry was “do not interfere”. Besides, in experiment [4], the “No. of mice developing lesions/No. of mice” value was 2/6 and the “mice developing lesions (%)” value amounted to 33%. In addition, the “KS cell proliferation (viable cells, trypan blue)” value in the experiment with KS cells [5] is “no effect”. The “invasion in response to bFGF” value in the experiment on smooth muscle cells is “inhibit”. For the same compound, the “production of IL-6 by KS cells” value in the experiment on IL-6 is reported as “inhibited”. The “production of IL-6 by KS cells” value in the experiment with IL-6 (listed as indinavir) is “reduced”. Also, in the experiment with KS cells [6], the “migration of KS cells” value is “neither indinavir nor saquinavir had any effect”. Besides, in experiment [7], the proliferation entry is “do not interfere”. Also, the “development of tumour lesions (lesion size)” value in experiment [8] was “inhibit”. For the same compound, in experiment [9], the “No. of macroscopic vascular lesions/No. of mice injected” value is 5/10 and the “mice that developed lesions (%)” value is listed as 50%.
`CC(C)(C)NC(=O)[C@@H]1C[C@@H]2CCCC[C@@H]2CN1C[C@@H](O)[C@H](Cc1ccccc1)NC(=O)[C@H](CC(N)=O)NC(=O)c1ccc2ccccc2n1` [Saquinavir, saquinavir]: the “capability of the KS cells to adhere to a substrate of fibronectin” value with KS cells [1] is reported as “do not inhibit”. For the same compound, in experiment [2], the “survival of macrovascular endothelial cells” value was “no effect” and the “basal or bFGF-induced proliferation (number of cells)” value is given as “no effect”. Also, the proliferation result in [3] was “do not interfere”. Also, in experiment [4], the “No. of mice developing lesions/No. of mice” value is on record as 1/6 and the “mice developing lesions (%)” value is recorded as 17%. The “KS cell proliferation (viable cells, trypan blue)” value in the experiment with KS cells [5] was “no effect”. In the experiment on smooth muscle cells, the “invasion in response to bFGF” value is recorded as “inhibit”. Moreover, the “production of IL-6 by KS cells” value in the experiment with IL-6 is reported as “reduced; also recorded: inhibited”. Further, in the experiment with KS cells [6], the “migration of KS cells” value was “neither indinavir nor saquinavir had any effect”. Moreover, the proliferation result in experiment [7] was “do not interfere”. The “development of tumour lesions (lesion size)” value in [8] is “inhibit”. Further, in experiment [9], the “No. of macroscopic vascular lesions/No. of mice injected” value is recorded as 2/10 and the “mice that developed lesions (%)” value turned out to be 20%.

Source of the values: US20060088545A1, “Use of inhibitors of the protease of the human immunodeficiency virus (hiv) to block cell migration and/or invasion, tissue infiltration and oedema for the therary of diseases associated therewith” (priority 2001, published 2006).
